These results are taken from patent US10322187B2, “Reduced toxicity molecular conjugates of anti-fungal agents” (Lehigh University, priority 2015, dated 2019).

Entries after “also recorded” stand apart in the source; their conditions may differ. Like-named read-outs stand apart in the source and are kept apart here.

The test system of data set [1] is sheep red blood cells. The data set can be described thus: Hemolysis measurements, release of hemoglobin. Conditions: for EH50, concentration required to induce 50% release of hemoglobin from erythrocytes: pH 7.4. The format is cell-based. Here is the method:
Sheep Red Blood Cells, 10%, in saline (Innovative Research, Novi, Mich.), were diluted in saline (pH 7.4) to a concentration of 4%, which corresponds to 4×10^7 cells/mL. All measurements were carried out in duplicate. Solutions of Amphotericin B (Sigma-Aldrich) were prepared by adding 10 μL of a DMSO solution containing a given concentration of the antibiotic (i.e., ranging from 0.2 mM to 50 mM) to 490 μL of PBS. After the resulting solution was vortex mixed for 30 seconds (s) it was incubated at 37° C. for 15 min. The resulting solution of antibiotic (500 μL) was then mixed with 500 μL of the 4% erythrocyte dispersion at 37° C. in a 1 mL plastic centrifuge vial to give a dispersion that was vortex mixed at slow rate for 5 s. After 1 h of incubation at 37° C., all samples were centrifuged (1500 g, Eppendorf centrifuge 5415C, 5000 rpm) at rt for 5 min. The supernatant (˜0.7 mL) from each plastic vial was carefully separated from sediment using a disposable glass pipette and quickly transferred to test tube. A volume of 50 μL of this supernatant was then transferred to a UV cell containing 500 μL of PBS that was maintained at 37° C. The UV spectrum was then scanned (450-650 nm) and the absorbance at 575 nm used to determine the extent of hemolysis. The extent of 0% and 100% of hemolysis was obtained from A575 values of experiments that were run in absence of AmphB (control, [A575,]o) and in presence, 100 μM AmphB ([A575]max), respectively.

The nature of data set [2]: Critical aggregation concentration (CAC) by UV absorptivity. The data set is classed as physicochemical. Conditions: PBS, 37° C., absorptivity at 409 nm. The source says: If one lets: (i) T, m, and P represent the total, the monomeric, and the aggregate concentrations of this macrolide, respectively; (ii) ε represent the apparent molar absorptivity; and (iii) εm and εp represent the molar absorptivity for the monomeric and aggregate components, respectively, then it can be shown that ε=εp+(εm−εp)m/T. See Yamashita K, Janout V, Bernard E M, Armstrong D, and Regen, S L. Micelle/monomer control over the membrane disrupting properties of an amphiphilic antibiotic. J. Am. Chem. Soc. 117 (1995) 6249-6253. At concentrations that are in excess of its CAC, m is constant, and ε is expected to be inversely proportional to T. Thus, by measuring the apparent molar absorptivity as a function of the reciprocal of the concentration of VJ-1138, its CAC value is estimated to be 0.9 μM (from the intercept of two straight lines).
Determination of Critical Aggregation Concentration (CAC) of AmphB and molecular conjugates. Solutions of AmphB and molecular conjugates in DMSO (Sigma-Aldrich) were prepared having a concentration of 1.00 mM. […] The UV spectrum was then recorded in the range of 250-550 nm. The absorbance at 408 nm was plotted as a function of the reciprocal value of the concentration of AmB and the critical aggregation concentration of the molecular conjugates was then determined, graphically.

Data set [3] has as its system C. albicans. The data set can be described thus: Antifungal activities, MIC/MFC. The data set is classed as cell-based. As to conditions: C. albicans; for MFC: read-out: MFC. On the procedure:
(§1) A similar sequence of reactions was carried out using lysine dicholamide in place of cholic acid afforded VJ-1147 of Table 2. To assess the antifungal properties of the diwalled VJ-1138 (Table 2) and 2a of Table 3, their in vitro activities were examined against four clinically relevant microbes, i.e., C. albicans, C. glabrata, C. neoformans, and C. gatti (Table 4).
(§2) Minimum inhibitory concentrations (MIC) and minimum fungicidal concentrations (MFC) are the lowest concentrations that are required for completely inhibiting growth, and killing at least 99% of the fungi, respectively.
(§3) The above molecules were tested for antifungal activity. Minimum inhibitory concentrations (MIC) and minimum fungicidal concentrations (MFC) are the lowest concentrations that are required for completely inhibiting growth, and killing at least 99% of the fungi, respectively. As is apparent from Table 4 below, there is a general trend; i.e., increased antifungal activity is observed as the length of the hydrocarbon chain that separates the facial amphiphile from the Amphotericin B moiety is decreased.

For data set [4], the system named is C. gatti. In words: Antifungal activities, MIC/MFC. The format is cell-based. Conditions: C. gatti; for MFC: read-out: MFC. Here is the method:
as §1, §2, §3

The test system of data set [5] is C. glabrata. The data set can be described thus: Antifungal activities, MIC/MFC. The format is cell-based. As to conditions: C. glabrata. On the procedure: as §1, §2, §3
Data set [6] has as its system C. neoformans. The data set can be described thus: Antifungal activities, MIC/MFC. Conditions: C. neoformans; for MFC: read-out: MFC. The data set is classed as cell-based. On the procedure:
as §1, §2, §3

For data set [7], the system named is Cryptococcus neoformans. The data set can be described thus: Cryptococcosis mouse model, brain and lung tissue burden. The format is in vivo, mice. Here is the method:
Cryptococcosis mice are infected via tail vein injection of 5×10^4 C. neoformans cells. Inocula are verified by quantitative culture. Animals are identified by temporary ink marking, assigned to groups of 10 mice. Test compounds will be dosed starting on the day of infection. Initial studies will employ i.v., i.p. or oral (gavage) dosing (depending on the compound and the vehicle). Antifungal compounds are given for a period of 7 days. […] On day 8, the lung and brain are evaluated by quantitative culture per gram of tissue, by weighing organs and culturing serially diluted homogenates. These tissue burden studies permit detection of drug efficacy that may not be evident by using a survival endpoint.
The mice were then sacrificed 7 days later for quantitative culture of brain and lung, with cryptococcal cells per gram tissue being expressed as logarithmic values (log 10). Mean values for each group were compared using the t-test.

Data set [8] concerns C. albicans, C. glabrata, C. neoformans, and C. gatti. The data set can be described thus: In vitro antifungal activity, general statements on the four microbes. The data set is classed as cell-based. Conditions: on a molar basis. On the procedure:
as §1, §2

For data set [9], the system named is HEK293T cells. The data set can be described thus: Inhibition of cell growth, MTT cell viability. As to conditions: 1, 10, 50, and 100 μM; FIG. 4. The format is cell-based, human. On the procedure:
Human embryonic kidney HEK293 cells were cultured in Dulbecco's modified Eagle's medium (DMEM supplemented with 10% FBS, 100 U/mL penicillin, and 0.1 mg/mL SI-10 streptomycin) in a humidified atmosphere of 5% CO2 at 37° C.
HEK293T cells were seeded in 96-well plates at a density of 6,000 cells/well and incubated overnight. Before treatment, compounds aliquots were solubilized in DMSO to obtain 10 mM stock solutions. Appropriate volumes of these stock solutions were added to DMEM media so the final concentration of DMSO is equal to 1%. After removal of cell media, 50 μL of treatment solutions were added to each well and incubated at 37° C. for 2 h. After treatment, the media was removed, and 100 μL of complete medium was added to each well before returning the plate to the incubator. Cell viability was determined after 72 h using the colorimetric MTT assay. Briefly, 10 μL of a 5 mg/mL MTT stock solution was added to the treated cells and incubated for 2 h at 37° C. The resulting formazan crystals were solubilized in 200 μL of DMSO, and the absorbance was measured at 580 nm using an Infinite 200 PRO microplate reader (Tecan). Cell viability was calculated against control cells treated with the vehicle in DMEM.

[10] abbreviates: t-test, 70 mg/kg/day intraperitoneal.

As to `C[C@@H]1[C@H](O)[C@@H](C)/C=C/C=C/C=C/C=C/C=C/C=C/C=C/[C@H](O[C@@H]2O[C@H](C)[C@@H](O)[C@H](N)[C@@H]2O)C[C@@H]2O[C@](O)(C[C@@H](O)C[C@@H](O)[C@H](O)CC[C@@H](O)C[C@@H](O)CC(=O)O[C@H]1C)C[C@H](O)[C@H]2C(=O)O` [AmphB, amphotericin B, reference compound], the “EH50, concentration required to induce 50% release of hemoglobin from erythrocytes” value in data set [1] (37° C. in saline) amounted to 4 µM. Also, in data set [2], the “critical aggregation concentration (CAC)” value is around 0.9 µM. In addition, the MIC in [3] (Candida albicans, first Table 4, lowest concentration completely inhibiting growth, read-out: MIC) was 0.5 µM; in data set [3] (Candida albicans, second Table 4 (Example 4), read-out: MIC), 0.5 µg/mL; in data set [4] (first Table 4, read-out: MIC), 0.3 µM; in data set [4] (second Table 4 (Example 4), read-out: MIC), 0.3 µg/mL; in data set [5] (Nakaseomyces glabratus, first Table 4, read-out: MIC) it was 0.5 µM; in data set [5] (Nakaseomyces glabratus, second Table 4 (Example 4), read-out: MIC), 0.5 µg/mL. The MIC stood at 0.3 µM in data set [6] (Cryptococcus neoformans, first Table 4, read-out: MIC) and 0.3 µg/mL in [6] (Cryptococcus neoformans, second Table 4 (Example 4), read-out: MIC). Further, the MFC in data set [3] (Candida albicans, first Table 4, lowest concentration killing at least 99% of the fungi) was found to be 1 µM; in [3] (Candida albicans, second Table 4 (Example 4)), 1 µg/mL; in data set [4] (first Table 4), 0.5 µM; in [4] (second Table 4 (Example 4)) it was 0.5 µg/mL; in data set [5] (Nakaseomyces glabratus, first Table 4), 1 µM; in data set [5] (Nakaseomyces glabratus, second Table 4 (Example 4)), 1 µg/mL. Moreover, the MFC is 0.5 µM in [6] (Cryptococcus neoformans, first Table 4) and 0.5 µg/mL in [6] (Cryptococcus neoformans, second Table 4 (Example 4)).

Turning to `CC1OC(O[C@H]2/C=C/C=C/C=C/C=C/C=C/C=C/C=C/[C@H](C)[C@@H](O)[C@@H](C)[C@H](C)OC(=O)C[C@H](O)C[C@H](O)CC[C@@H](O)[C@H](O)C[C@H](O)C[C@]3(O)C[C@H](O)[C@@H](C(=O)NCCCCCCCC(=O)N(CCCCNC(=O)CC[C@@H](C)C4CCC5C6C(O)CC7CC(O)CCC7(C)C6CC(O)C54C)CCCNC(=O)CC[C@@H](C)C4CCC5C6C(O)CC7CC(O)CCC7(C)C6CC(O)C54C)[C@H](C2)O3)C(O)C(N)C1O` (stereo partly shown) [VJ-1138], the mean lung burden in [7] (CD1 male mice, intraperitoneal DMSO solution, 70 mg/kg/day, 7 days, untreated 6.34) is on record as 5.10 log 10 cryptococcal cells per. Moreover, the mean brain burden in [7] (CD1 male mice, intraperitoneal DMSO solution, 70 mg/kg/day, 7 days, untreated 8.22) was 7.66 log 10 cryptococcal cells per. The “p, brain tissue burden compared to untreated mice” value in [7] (setting [10]) was determined as 0.0083. Also, the “p, lung tissue burden compared to untreated mice” value in data set [7] (setting [10]) is recorded as below 0.0001. Moreover, in [8], the “antifungal potency compared with AmphB” value is recorded as “approaches that of the native antibiotic; also recorded: approaching that of AmphB”. The “EH50 relative to AmphB” value in data set [1] is given as “approximately 2 orders of magnitude”. The “hemolytic activity relative to AmphB” value in data set [1] is on record as “dramatically reduced”. The “EH50, concentration required to induce 50% release of hemoglobin from erythrocytes” value in data set [1] came to 375 µM. Moreover, the “critical aggregation concentration (CAC)” value in data set [2] came to 0.9 µM. For the same compound, the “toxicity toward HEK293t cells compared with AmphB” value in data set [9] was “dramatically reduced”. The MIC in data set [3] (Table 2, 1st value in brackets, read-out: minimum inhibitory concentration (MIC)) amounted to 2 µM; in [3] (first Table 4, lowest concentration completely inhibiting growth, read-out: MIC), 1 µM; in data set [4] (Table 2, 4th value in brackets, read-out: minimum inhibitory concentration (MIC)), 3 µM; in data set [4] (first Table 4, read-out: MIC) it was 1 µM; in data set [5] (Table 2, 2nd value in brackets, read-out: minimum inhibitory concentration (MIC)), 4 µM; in data set [5] (first Table 4, read-out: MIC), 2 µM. The MIC in data set [6] (Table 2, 3rd value in brackets, read-out: minimum inhibitory concentration (MIC)) was 2 µM; in data set [6] (first Table 4, read-out: MIC), 1 µM. The minimal fungicidal concentration (MFC) in [3] (first Table 4, lowest concentration killing at least 99% of the fungi) amounted to 2 µM; in data set [4] (first Table 4), 2 µM; in data set [5] (first Table 4) it was 4 µM; in [6] (first Table 4), 2 µM.

For orientation: MFC means the smallest concentration meeting the test's criterion for killing the fungus.
